Experiment [1] addresses MAPK14 (human) (UniProt Q16539). In words: Inhibition of MAPK14 Kinase Activity by EGFRP Assay.
Experiment [2] shares this target. In words: Inhibition of LPS Stimulated TNF Production by U937 Cells. The note with it: for inhibition: concentration not given here.
The target is the same in experiment [3]. In words: Inhibition of MAPK14 Kinase Activity by PHAS-I Assay. The conditions noted are these: for inhibition: concentration not given here.

We go through 22 molecules from the Kinase Knowledgebase extract (Sharma et al. 2016).

Molecules are shown by their SMILES.

Broadly, the IC50 is the midpoint of a concentration-inhibition curve. A low value points to inhibition by little substance. Usually inhibition stands for the percentage by which the read-out fell short of the control. Lower therefore signals a weak effect.

Sequence of MAPK14 (human) (Q16539 whole entry, looked up): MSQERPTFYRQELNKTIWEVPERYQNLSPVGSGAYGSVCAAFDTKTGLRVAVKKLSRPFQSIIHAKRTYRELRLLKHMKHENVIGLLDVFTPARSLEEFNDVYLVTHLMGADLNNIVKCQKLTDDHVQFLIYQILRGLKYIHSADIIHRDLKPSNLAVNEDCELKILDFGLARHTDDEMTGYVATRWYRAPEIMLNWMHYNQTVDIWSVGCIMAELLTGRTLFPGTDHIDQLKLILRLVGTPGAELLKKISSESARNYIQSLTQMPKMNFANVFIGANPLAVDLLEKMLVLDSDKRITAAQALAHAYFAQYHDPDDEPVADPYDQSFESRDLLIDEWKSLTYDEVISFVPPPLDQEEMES

Regarding `Fc1ccc(-c2n[nH]cc2-c2ccnc(NCCn3ccnc3)c2)cc1`, the IC50 at MAPK14 (human) [1] was under 0.01 µM; at MAPK14 (human) [2], 0.0074 µM.
With `Cc1cc(-c2cn(C)nc2-c2cccc(Cl)c2)ccn1.Cc1cc(-c2cnn(C)c2-c2cccc(Cl)c2)ccn1`, the IC50 against MAPK14 (human) [1] stood at 0.044 µM.
On the same count and under the same terms, the figure for `Cn1cc(-c2ccncc2)c(-c2cccc(Cl)c2)n1.Cn1ncc(-c2ccncc2)c1-c1cccc(Cl)c1` is 0.103 µM.
Molecule `Cc1cccc(-c2c(-c3ccnc(C)c3)cnn2C)c1` yielded an IC50 on MAPK14 (human) [1] of 0.104 µM.
Molecule `O=C(NCCCc1[nH]nc(-c2ccc(F)cc2)c1-c1ccncc1)NCCc1ccc(F)cc1` showed an inhibition against MAPK14 (human) [2] of 9%. Besides, the concentration for half-maximal inhibition (IC50) against MAPK14 (human) [3] was determined as 0.019 µM.
Regarding `CC(C)c1ccc(NC(=O)NCCc2[nH]nc(-c3ccc(F)cc3)c2-c2ccncc2)cc1`, the results for the inhibition on MAPK14 (human) [2] and at MAPK14 (human) [3] were 5% and 50%, respectively.
The corresponding values for `N#Cc1ccc(C(=O)NCc2[nH]nc(-c3ccc(F)cc3)c2-c2ccncc2)cc1` are 40% and 53%.
The molecule `Cc1c(-c2ccncc2)c(-c2ccc(F)cc2)nn1CC(=O)N(C)CCn1ccnc1` showed an IC50 on MAPK14 (human) [2] of over 10 µM. On MAPK14 (human) [3], this molecule gave an inhibition of 43%.
The corresponding values for `O=S(=O)(NCc1[nH]nc(-c2ccc(F)cc2)c1-c1ccncc1)c1cc(Cl)c(Cl)s1` are 1.81 µM and 78%.
On to `C[C@H](NC(=O)NCCc1[nH]nc(-c2ccc(F)cc2)c1-c1ccncc1)c1ccccc1`, for which the inhibition against MAPK14 (human) [2] amounted to 12%; at MAPK14 (human) [3], 79%.
Take `O=C(NCCc1[nH]nc(-c2ccc(F)cc2)c1-c1ccncc1)NC(=O)c1ccccc1`: the inhibition at MAPK14 (human) [2] came to 36%; against MAPK14 (human) [3], 67%.
As to `Cc1cc(C)c(NC(=O)NCCc2[nH]nc(-c3ccc(F)cc3)c2-c2ccncc2)c(C)c1`, the inhibition at MAPK14 (human) [2] came out at 47%; at MAPK14 (human) [3], 57%.
Consider `Cc1[nH]nc(-c2ccc3c(c2)CCCO3)c1-c1ccncc1`, for which the results for the half-inhibitory concentration (IC50) against MAPK14 (human) [2] and against MAPK14 (human) [3] were 0.208 µM and 0.8 µM, respectively.
For the molecule `CCOC(=O)C(NC(=O)NCCc1[nH]nc(-c2ccc(F)cc2)c1-c1ccncc1)C(C)C` (stereo unspecified), the inhibition on MAPK14 (human) [2] is 36%; against MAPK14 (human) [3], 79%.
Consider `Cc1c(-c2ccncc2)c(-c2ccc(F)cc2)nn1CC(=O)N[C@@H](C)C1CCCCC1`, for which the inhibition against MAPK14 (human) [2] was 38%; on MAPK14 (human) [3], 64%.
Regarding `CCS(=O)(=O)NCCc1[nH]nc(-c2ccc(F)cc2)c1-c1ccncc1`, the inhibition against MAPK14 (human) [2] came out at 70%; on MAPK14 (human) [3], 93%.
The corresponding values for `O=C(NCCc1[nH]nc(-c2ccc(F)cc2)c1-c1ccncc1)C1CCC1` are 65% and 72%.
Molecule `COc1ccc(Br)cc1S(=O)(=O)N[C@H](C)c1[nH]nc(-c2ccc(F)cc2)c1-c1ccncc1` showed an inhibition at MAPK14 (human) [2] of 86%. Moreover, at MAPK14 (human) [3], the half-inhibitory concentration (IC50) came to 0.024 µM.
As for `O=C(NCc1[nH]nc(-c2ccc(F)cc2)c1-c1ccncc1)Nc1ccccc1F`, the IC50 on MAPK14 (human) [2] turned out to be 2.05 µM. This molecule also showed an inhibition at MAPK14 (human) [3] of 23%.
On to `COc1ccc(OC)c(NC(=O)NCc2[nH]nc(-c3ccc(F)cc3)c2-c2ccncc2)c1`, for which the inhibition on MAPK14 (human) [2] was found to be 40%; at MAPK14 (human) [3], 39%.
`C[C@H](NS(=O)(=O)c1ccccc1C(=O)O)c1[nH]nc(-c2ccc(F)cc2)c1-c1ccncc1`: the inhibition against MAPK14 (human) [2] was found to be 70%. On MAPK14 (human) [3], this molecule came in with an IC50 of 0.76 µM.
Consider `CN(C)C(=O)NCCc1[nH]nc(-c2ccc(F)cc2)c1-c1ccncc1`, for which the inhibition against MAPK14 (human) [2] amounted to 52%; at MAPK14 (human) [3], 75%.
